Molecular target: T1, SULT2A1 (Homo sapiens, UniProt Q06520)
T1 construct: expressed from a SULT2A1 vector in HEK293 cells, co-expressed with PAPS synthase EGFP fusions
T1 sequence (Q06520 1-285): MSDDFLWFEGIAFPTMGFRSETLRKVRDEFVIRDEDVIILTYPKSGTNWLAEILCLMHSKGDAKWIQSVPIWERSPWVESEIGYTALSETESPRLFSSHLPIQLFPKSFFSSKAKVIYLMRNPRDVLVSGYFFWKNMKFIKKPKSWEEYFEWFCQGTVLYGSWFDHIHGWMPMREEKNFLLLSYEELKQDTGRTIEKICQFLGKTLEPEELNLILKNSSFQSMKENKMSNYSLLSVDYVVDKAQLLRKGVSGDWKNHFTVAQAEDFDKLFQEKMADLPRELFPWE
Assay: DHEA sulfation assay in transfected HEK293 cells
Format: cell-based
Details: co-expressed PAPS synthase supplies PAPS

Structure (SMILES): C[C@]12CC[C@H](O)CC1=CC[C@@H]1[C@@H]2CC[C@]2(C)C(=O)CC[C@@H]12 [DHEA]
- conversion rate: co-express PAPS synthase protein variants with cytoplasmic SULT2A1

— paper PMC6016456, “Human DHEA sulfation requires direct interaction between PAPS synthase 2 and DHEA sulfotransferase SULT2A1” (The Journal of Biological Chemistry, 2018)
